According to ChEMBL document CHEMBL3585298, “Combination of 4-anilinoquinazoline and rhodanine as novel epidermal growth factor receptor tyrosine kinase inhibitors” (Bioorg Med Chem, 2015):

What was measured:
A549 = test: Antiproliferative activity against human A549 cells assessed as cell growth by MTT assay; assay type: functional, cell-based
HepG2 = test: Antiproliferative activity against human HepG2 cells assessed as cell growth by MTT assay; assay type: functional, cell-based
[1] = biological target: Epidermal growth factor receptor (Homo sapiens, UniProt P00533); test: Inhibition of recombinant EGFR (unknown origin) assessed as inhibition of autophosphorylation after 1 hr by DELFIA/Time-resolved fluorometry
Chain of Epidermal growth factor receptor (P00533 whole entry): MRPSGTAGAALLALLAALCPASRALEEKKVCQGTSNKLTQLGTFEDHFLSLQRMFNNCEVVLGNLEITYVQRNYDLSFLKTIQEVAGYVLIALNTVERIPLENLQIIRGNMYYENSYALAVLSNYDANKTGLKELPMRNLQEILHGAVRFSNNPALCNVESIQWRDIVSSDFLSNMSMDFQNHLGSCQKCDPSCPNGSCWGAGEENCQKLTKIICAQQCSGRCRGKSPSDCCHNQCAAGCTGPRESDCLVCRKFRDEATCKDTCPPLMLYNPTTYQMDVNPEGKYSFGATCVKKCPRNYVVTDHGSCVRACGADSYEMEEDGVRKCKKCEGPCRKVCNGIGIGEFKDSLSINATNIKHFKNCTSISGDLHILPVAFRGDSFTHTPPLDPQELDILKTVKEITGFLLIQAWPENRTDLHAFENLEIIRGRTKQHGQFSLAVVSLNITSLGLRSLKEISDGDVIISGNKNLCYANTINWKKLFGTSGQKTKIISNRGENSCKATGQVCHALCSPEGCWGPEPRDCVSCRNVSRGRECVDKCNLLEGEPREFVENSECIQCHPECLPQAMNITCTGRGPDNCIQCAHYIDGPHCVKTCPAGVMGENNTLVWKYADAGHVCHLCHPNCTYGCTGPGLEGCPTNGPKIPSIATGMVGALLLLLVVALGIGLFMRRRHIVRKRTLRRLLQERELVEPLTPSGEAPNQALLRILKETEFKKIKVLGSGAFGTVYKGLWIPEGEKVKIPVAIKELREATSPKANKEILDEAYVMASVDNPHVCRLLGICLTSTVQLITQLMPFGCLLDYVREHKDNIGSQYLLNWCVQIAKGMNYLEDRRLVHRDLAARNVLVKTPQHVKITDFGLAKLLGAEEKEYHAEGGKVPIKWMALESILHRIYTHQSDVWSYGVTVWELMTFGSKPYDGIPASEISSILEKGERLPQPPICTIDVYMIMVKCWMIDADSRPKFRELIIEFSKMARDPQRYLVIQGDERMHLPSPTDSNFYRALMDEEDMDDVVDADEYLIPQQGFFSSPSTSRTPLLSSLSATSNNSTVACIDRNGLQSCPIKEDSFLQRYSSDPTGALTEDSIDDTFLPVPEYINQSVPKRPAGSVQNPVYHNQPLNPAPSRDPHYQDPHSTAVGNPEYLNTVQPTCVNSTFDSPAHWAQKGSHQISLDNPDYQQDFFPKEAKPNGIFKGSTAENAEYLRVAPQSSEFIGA

Row | IC50 (A549) [µM] | IC50 (HepG2) [µM] | IC50 [1] [µM] | SMILES
1 | 10.4 | 8.5 | 9.8 | O=C1N=C(N2CCC[C@H]2C(=O)Nc2ccc3ncnc(Nc4cccc(Cl)c4)c3c2)S/C1=C/c1cccnc1
2 | > 50 | 21.3 | – | O=C1N=C(N2CCC[C@H]2C(=O)Nc2ccc3ncnc(Nc4cccc(Cl)c4)c3c2)S/C1=C/c1cccc(Br)c1
3 | 6.1 | 4.12 | 8.1 | O=C1N=C(N2CCC[C@H]2C(=O)Nc2ccc3ncnc(Nc4cccc(Cl)c4)c3c2)S/C1=C/c1cccs1
4 | > 50 | 27.6 | – | O=C1N=C(N2CCC[C@H]2C(=O)Nc2ccc3ncnc(Nc4cccc(Cl)c4)c3c2)S/C1=C/c1cccc(Cl)c1
5 | > 50 | 32.5 | – | O=C1N=C(N2CCC[C@H]2C(=O)Nc2ccc3ncnc(Nc4cccc(Cl)c4)c3c2)S/C1=C/c1ccccc1[N+](=O)[O-]
6 | 31.7 | 19 | – | COc1ccc(/C=C2/SC(N3CCC[C@H]3C(=O)Nc3ccc4ncnc(Nc5cccc(Cl)c5)c4c3)=NC2=O)cc1
7 | > 50 | 22.1 | – | COc1ccccc1/C=C1/SC(N2CCC[C@H]2C(=O)Nc2ccc3ncnc(Nc4cccc(Cl)c4)c3c2)=NC1=O
8 | > 50 | 28.1 | – | O=C1N=C(N2CCC[C@H]2C(=O)Nc2ccc3ncnc(Nc4cccc(Cl)c4)c3c2)S/C1=C/c1ccccc1Cl
9 | 10.8 | 6.4 | 7.4 | O=C1N=C(N2CCC[C@H]2C(=O)Nc2ccc3ncnc(Nc4cccc(Cl)c4)c3c2)S/C1=C/c1cccnc1Cl
10 | 34.5 | 18.2 | – | O=C1N=C(N2CCC[C@H]2C(=O)Nc2ccc3ncnc(Nc4cccc(Cl)c4)c3c2)S/C1=C/c1ccccc1F
11 | 18.7 | 10.5 | 7.6 | O=C1N=C(N2CCC[C@H]2C(=O)Nc2ccc3ncnc(Nc4cccc(Cl)c4)c3c2)S/C1=C/c1ccc(Cl)cc1
12 | 24.2 | 15.4 | 13.2 | O=C1N=C(N2CCC[C@H]2C(=O)Nc2ccc3ncnc(Nc4cccc(Cl)c4)c3c2)S/C1=C/c1ccc(-c2ccccc2)cc1
13 | 8.5 | 4.5 | 6.5 | Cc1cccc(/C=C2/SC(N3CCC[C@H]3C(=O)Nc3ccc4ncnc(Nc5cccc(Cl)c5)c4c3)=NC2=O)n1
14 | 3.1 | 2.7 | 3.1 | O=C1N=C(N2CCC[C@H]2C(=O)Nc2ccc3ncnc(Nc4cccc(Cl)c4)c3c2)S/C1=C/c1cccc(Br)n1
15 | > 50 | 22.9 | – | O=C1N=C(N2CCC[C@H]2C(=O)Nc2ccc3ncnc(Nc4cccc(Cl)c4)c3c2)S/C1=C/c1ccc2ccccc2n1
16 | > 50 | 24.3 | – | O=C1N=C(N2CCC[C@H]2C(=O)Nc2ccc3ncnc(Nc4cccc(Cl)c4)c3c2)S/C1=C/c1ccccc1Br
17 | > 50 | > 50 | 31.4 | O=C1N=C(N2CCC[C@H]2C(=O)Nc2ccc3ncnc(Nc4cccc(Cl)c4)c3c2)S/C1=C/c1ccc(Br)s1
